We go through two molecules from paper PMC5906549, “Cathelicidin-Derived Antimicrobial Peptides Inhibit Zika Virus Through Direct Inactivation and Interferon Pathway” (Frontiers in Immunology, 2018).

Structures are written as SMILES. Peptide text beside a SMILES is read from it.

For the assay, the system named is ZIKV strain MR766. Kind of assay: Extracellular ZIKV RNA in supernatants of infected human fetal astrocytes (real-time RT-PCR). Format: cell-based, Zika virus. As to conditions: ZIKV MOI 0.5, 48 h, cell-free supernatants. The protocol:
Total mRNA was isolated with TRIzol Reagent (Thermo Fisher Scientific) and RNeasy Mini Kit (QIAGEN Inc., Valencia, CA, USA) following the manufacturer’s recommendations. Two real-time RT-PCR methods were used for the current studies. First, SYBR Green-based RT-PCR assay was used to determine intracellular ZIKV RNA in Vero cells. For this assay, reverse transcription was performed using Verso cDNA synthesis Kit (Thermo Fisher Scientific) and 1 µg of total RNA in a 15-µL final volume. The RT-PCR analyses were performed using 7.5-µL SYBR Green PCR Master Mix (Thermo Fisher Scientific) with 0.5-µL cDNA, 1.5-µL H2O, 5.5-µL oligonucleotide primer pairs at 10 µM. […] GG-3. PCR program: 1, 50°C for 2 min; 2, 95°C for 2 min; 3, 95°C for 15 s; 4, specific annealing temperature for 15 s; 5, 72°C for 1 min. Steps 2–4 were repeated 40 times. All samples were amplified in triplicate for analysis. Relative ZIKV RNA levels were determined and standardized with a GAPDH internal control using comparative ΔΔCT method ([35]). Second, TaqMan-based RT-PCR assay was used to determine intracellular ZIKV RNA and other gene expressions in Figures 3–6 and extracellular ZIKV RNA in Figure 3. The TaqMan assay was performed in a StepOne^TM Real-Time PCR system (Thermo Fisher Scientific). Primers used for TaqMan real-time RT-PCR were all from the Thermo Fisher Scientific, which included ZIKV (forward sequence: 5-[…]-3, reverse sequence: 5- […]-3, and probe sequence: 5′-[…]-3), IFN-α2 (Hs00265051_s1), IFN-β1 (Hs01077958_s1), eukaryotic 18-s rRNA (Hs99999901_s1), β-actin (Hs99999903_m1), and GAPDH (Catalog number: 4310884E). Relative ZIKV mRNA levels were determined and standardized with a GAPDH or 18-s rRNA endogenous control using comparative ΔΔCT method ([35]). […] Quantitative genomic RNA from ZIKV (NR-1838DQ, ATCC) was used as a standard to calculate viral copies.
(A) Human fetal astrocytes were treated with doses of the selected peptides ranging from 1 to 50 µM. […] Cell viability was determined by a colorimetric MTS assay. […] Data were analyzed by nonlinear regression and assessed the EC50 for each of the antimicrobial peptides. […] At the experimental endpoint, intracellular ZIKV RNA (B) was determined through real-time RT-PCR in total cellular RNA. […] Extracellular ZIKV RNA [(C), in log scale] was determined through real-time RT-PCR using total RNA isolated from cell-free supernatants. ZIKV virion levels (in log scale) were determined by adding cell-free culture supernatants to Vero cells and overlaid with Agar gel in viral PFA (D). Viral plaques were manually counted and calculated as PFU/mL (E). * p < 0.05, ** p < 0.01, and *** p < 0.001, as compared with the ZIKV group without peptide treatment (ANOVA, N = 3).

In the case of `CC[C@H](C)[C@H](NC(=O)[C@H](CCCCN)NC(=O)[C@H](CCCCN)NC(=O)[C@H](Cc1ccccc1)NC(=O)[C@H](CC(C)C)NC(=O)[C@H](CCCCN)NC(=O)[C@H](CCCCN)NC(=O)[C@H](Cc1ccccc1)NC(=O)[C@H](CCCCN)NC(=O)[C@H](CCCCN)NC(=O)[C@H](CCCNC(=N)N)NC(=O)[C@H](Cc1ccccc1)NC(=O)[C@H](CCCNC(=N)N)NC(=O)[C@H](CCCCN)NC(=O)[C@H](Cc1ccccc1)NC(=O)[C@H](CCCNC(=N)N)NC(=O)CN)C(=O)N[C@@H](CO)C(=O)O` [BMAP-18] (H-GRFKRFRKKFKKLFKKIS-OH; N-terminus and C-terminus assumed), the “Extracellular ZIKV RNA in culture supernatants, reduced to % of untreated” value is listed as 5.6% (peptide 2 µM) and 1.3% (peptide 10 µM).
The matching figures for `CC[C@H](C)[C@H](NC(=O)[C@H](CCCNC(=N)N)NC(=O)[C@H](CCC(N)=O)NC(=O)[C@@H](NC(=O)[C@@H](NC(=O)[C@H](CCCNC(=N)N)NC(=O)[C@H](CCCCN)NC(=O)[C@H](Cc1ccccc1)NC(=O)CN)[C@@H](C)CC)C(C)C)C(=O)N[C@@H](CCCCN)C(=O)N[C@@H](CC(=O)O)C(=O)N[C@@H](Cc1ccccc1)C(=O)N[C@@H](CC(C)C)C(=O)N[C@@H](CCCNC(=N)N)C(=O)N[C@@H](CC(N)=O)C(=O)N[C@@H](CC(C)C)C(=O)N[C@H](C(N)=O)C(C)C` [GF-17] (H-GFKRIVQRIKDFLRNLV-NH2; N-terminus and C-terminus assumed): 16.7% and 0.1%.
